Reference: paper PMC8876412 (Viruses, 2022)
“Also recorded” adds a separate entry of the source.

Experiments:
[1] = test system: Western Equine Encephalitis Virus (WEEV); details: cultured human neuronal cells; cited from earlier work
[2] = test system: MCMV Smith strain; parameters: method as in ref 24 = [24]; details: cited from earlier work
[3] = test system: CMV TB40; parameters: method as in ref 24 = [24]; details: cited from earlier work
[4] = test system: HSV2; parameters: method as in ref 24 = [24]; details: cited from earlier work
[5] = test system: CMV TB40; assay: microbe, parasite or virus in culture; format: cell-based, human cytomegalovirus; details: Human betaherpesvirus 5, 168 h, read-out: EC50 TB40
[6] = test system: pp28-luciferase recombinant Towne CMV; assay: microbe, parasite or virus in culture; details: Human betaherpesvirus 5, read-out: EC50 pp28-Luciferase
[7] = MTT toxicity assay in non-infected cells; format: cell-based; details: human, non-infected HFF cells, non-infected HFFs
[8] = test system: CMV TB40 (US17 DNA); assay: Viral DNA in cells and supernatants by US17 real-time PCR; format: cell-based, human cytomegalovirus; details: for cellular viral loads (viral DNA replication in cells): 72, 96, 120 h
[9] = test system: HSV1; parameters: method as in ref 24 = [24]; details: cited from earlier work
[10] = test system: MCMV Smith strain; assay: microbe, parasite or virus in culture; format: cell-based; details: Mouse cytomegalovirus, Fibroblast, read-out: EC50 MCMV
[11] = test system: pp28-luciferase recombinant Towne CMV; details: CC50 in non-infected HFFs versus anti-CMV EC50
[12] = test system: CMV TB40; assay: Virus yield: supernatants of TB40-infected HFFs titered by plaque assay; format: cell-based, human cytomegalovirus; details: supernatants at 72, 96, 120 h; for reduction in viral titer (virus yield) of supernatants: 3 µM
[13] = test system: HSV1; assay: HSV1 plaque assay in Vero cells; format: cell-based, Human Herpesvirus 1; details: 5 µM, positive control
[14] = test system: HSV2; assay: HSV2 plaque assay in Vero cells; format: cell-based, Human Herpesvirus 2; details: 5 µM, positive control
[15] = test system: CMV; parameters: method as in ref 23 = [23]; details: cited from earlier work

Structure (SMILES): O=C(NCCc1ccncc1)C1CCN(C(=O)c2cc3ccccc3n2Cc2ccc(Cl)cc2)CC1 [CCG205432]
- inhibition of infectious virus [1]: inhibited the infectious virus

Structure (SMILES): CC(C)NC(=O)C1CCN(C(=O)c2cc3sccc3n2Cc2ccc(Cl)cc2)CC1 [Compound 1]
- in vitro activity against mouse CMV [2]: low µM concentrations
- in vitro activity against TB40 [3]: low µM concentrations
- activity against HSV2 [4]: no activity
- EC50 [5]: 1.99 ± 0.15 µM
- EC50 [6]: 1.7 ± 0.6 µM
- CC50 at 72 h [7]: > 200 µM
- cellular viral loads (viral DNA replication in cells) ([8]; 3 µM): did not reduce
- activity against HSV1 [9]: no activity

Structure (SMILES): CC(C)NC(=O)C1CCCN(C(=O)c2cc3sccc3n2Cc2ccc(Cl)cc2)C1 (centres unmarked) [Compound 2]
- EC50 [6]: > 30 µM

Structure (SMILES): CC(C)NC(=O)C1CCN(C(=O)c2cc3ccccc3n2Cc2ccc(Cl)cc2)CC1 [Compound 3]
- EC50 [6]: > 30 µM

Structure (SMILES): CC(C)NC(=O)C1CCN(C(=O)c2cccn2Cc2ccc(Cl)cc2)CC1 [Compound 4]
- EC50 [6]: > 30 µM

Structure (SMILES): O=C(NCCc1ccccn1)C1CCN(C(=O)c2cccn2Cc2ccc(Cl)cc2)CC1 [Compound 5]
- EC50 [6]: > 30 µM

Structure (SMILES): O=C(NCCc1cccnc1)C1CCN(C(=O)c2cccn2Cc2ccc(Cl)cc2)CC1 [Compound 6]
- EC50 [6]: > 30 µM

Structure (SMILES): O=C(NCCc1ccncc1)C1CCN(C(=O)c2cccn2Cc2ccc(Cl)cc2)CC1 [Compound 7]
- EC50 [10]: 0.6 ± 0.34 µM
- EC50 [5]: 0.55 ± 0.06 µM
- selectivity index [11]: > 1500
- reduction in viral titer (virus yield) of supernatants [12]: reduced virus yield at all late time points; also recorded: higher than with 1 and overall similar to GCV
- EC50 [6]: 0.21 ± 0.06 µM
- CC50 at 72 h [7]: > 500 µM
- viral loads in supernatants ([8]; 3 µM, 72, 96, 120 hpi): decreased the viral loads in supernatants at all time points
- cellular viral loads (viral DNA replication in cells) ([8]; 3 µM): did not reduce

Structure (SMILES): O=C(NCCc1ccncc1)C1CCN(C(=O)c2cc3ccccc3n2Cc2ccc(Cl)cc2)CC1 [Compound 8]
- EC50 [10]: 0.73 ± 0.32 µM
- EC50 [5]: 0.42 ± 0.07 µM
- selectivity index [11]: > 1500
- reduction in viral titer (virus yield) of supernatants [12]: higher than with 1 and overall similar to GCV
- EC50 [6]: 0.28 ± 0.06 µM
- CC50 at 72 h [7]: > 500 µM
- viral loads in supernatants ([8]; 3 µM, 72, 96, 120 hpi): decreased viral loads at 120 hpi
- cellular viral loads (viral DNA replication in cells) ([8]; 3 µM): did not reduce

Structure (SMILES): O=C(NCCc1ccncc1)C1CCN(C(=O)c2cc3sccc3n2Cc2ccc(Cl)cc2)CC1 [Compound 9]
- EC50 [5]: 0.35 ± 0.07 µM
- selectivity index [11]: > 1500
- EC50 [6]: 0.3 ± 0.05 µM
- CC50 at 72 h [7]: > 500 µM

Structure (SMILES): O=C(NCc1ccccn1)C1CCN(C(=O)c2cccn2Cc2ccc(Cl)cc2)CC1 [Compound 10]
- EC50 [6]: > 30 µM

Structure (SMILES): O=C(NCc1cccnc1)C1CCN(C(=O)c2cccn2Cc2ccc(Cl)cc2)CC1 [Compound 11]
- EC50 [6]: > 30 µM

Structure (SMILES): O=C(NCc1ccncc1)C1CCN(C(=O)c2cccn2Cc2ccc(Cl)cc2)CC1 [Compound 12]
- EC50 [6]: > 30 µM

Structure (SMILES): O=C(O)C1CCN(C(=O)c2cccn2Cc2ccc(Cl)cc2)CC1 [Compound 13]
- EC50 [6]: > 30 µM

Structure (SMILES): CCOC(=O)C1CCN(C(=O)c2cccn2Cc2ccc(Cl)cc2)CC1 [Compound 14]
- EC50 [6]: > 30 µM

Structure (SMILES): Nc1nc(O)c2ncn(COC(CO)CO)c2n1 [GCV, ganciclovir, reference compound]
- inhibition of HSV1 [13]: complete inhibition
- viral DNA in supernatants ([8]; 5 µM): reduced DNA replication
- viral DNA replication in cells ([8]; 5 µM): reduced DNA replication
- inhibition of HSV2 [14]: complete inhibition

Structure (SMILES): COc1cccc(N2CCN(C3=Nc4c(F)cccc4[C@H](CC(=O)O)N3c3cc(C(F)(F)F)ccc3OC)CC2)c1 [Letermovir, reference compound]
- reduction in viral progeny of supernatants ([12]; 10 nM): strongest reduction in viral progeny at all time points
- viral loads in supernatants ([8]; 10 nM): reduced viral loads in supernatants

Structure (SMILES): CC(C)Nc1nc2cc(Cl)c(Cl)cc2n1[C@H]1O[C@@H](CO)[C@H](O)[C@@H]1O [maribavir, Maribavir]
- response ([15]; across all doses): ~ 65%
- CMV recurrences ([15]; of the participants): 35%
